Experimental data from US20250304526A1, “HIGH AND MULTIPLE REDOX POTENTIAL, STABLE, AND SOLUBLE BIS-DIARYLAMINE DERIVATIVES AND USES THEREOF” (University of Kentucky Research Foundation, priority 2024, published 2025).

Tests used:
[1] = Cyclic voltammetry (redox potentials, diffusion coefficients); assay type: physicochemical; details: for Redox peak of radical cation formation (first oxidation potential): 1 mM, 0.1 M TBAPF6 in CH3CN, glassy carbon; for Kc (comproportionation constant): calculated from ΔE at 298 K
Procedure: CV measurements were carried out in a nitrogen-filled glovebox at ambient glovebox temperature using a VSP-300 potentiostat (BioLogic). Unless otherwise indicated, the CVs were recorded in 0.2 M TBAPF6/CH3CN as electrolyte with 3 mm diameter glassy carbon (CH Instruments, Inc.) as the working electrode. A non-aqueous Ag/Ag^+ (silver wire immersed in CH3CN containing 0.1 M TBABF4 and 0.01 M AgBF4) electrode was used as the reference electrode, and a Pt wire (CH Instruments, Inc.) as the counter electrode. Before each measurement, glassy carbon electrodes were mechanically polished with an aqueous slurry of graded alumina (0.05 μm), then ultra-sonicated in water then acetone for 1 min each. Voltammograms were recorded at a scan rate of 100 mV·s^−1. Ferrocene was used as an internal reference and the oxidation potentials were calibrated with respect to ferrocene/ferrocenium (Cp2Fe^0/+) redox couple. The diffusion coefficients were determined using Randles-Sevick equation: […]
with R being the perfect gas constant (8.314 J·mol^−1·K^−1), F the Faraday's constant (96485 C·mol^−1), T the absolute temperature (˜298 K), ip is the peak current intensity (in A), n the number of transferred electrons, A the area of the electrode (cm^2), D the diffusion coefficient (cm^2·s^−1), v the scan rate (V·s^−1) and c the concentration (mol·cm^−3). Data obtained from voltammograms at scan rates of 25, 50, 75, 100, 200, 300 and 400 mV·s^−1 were used for the calculation of diffusion coefficients.
Electrochemical characterization of 1-4 was achieved by cyclic voltammetry (CV) in 0.1 M TBAPF6 in CH3CN. Glassy carbon was used as the working electrode and 1 mM of active materials were used. All derivatives featured two distinct one-electron oxidation waves upon voltage sweep. The first and the second waves correspond to the sequential neutral to radical-cation and radical-cation to dication transformations, respectively. These features are in line with the presence of two redox centers in these molecules. The redox peaks associated with the radical cation formation for molecules 1 and 2 are centered at 0 and 0.17 V vs Fc^+/Fc, respectively (FIG. 4). These values are in line with the data reported in literature for the same molecules.^8 Note that in previous literature the electrochemistry is reported in 0.1 M TBAClO4 in dichloromethane and reported versus a Ag/AgCl reference electrode. The Fc^+/Fc couple has a redox potential at 0.403 V vs SCE and 0.44 V vs Ag/AgCl reference electrode. On the other hand, molecules 3 and 4 feature the radical cation transformation redox peaks at 0.41 and 0.53 V vs Fc^+/Fc, respectively (FIG. 4).
In fact, these molecules belong to a class of compounds known as mixed-valence (MV) compounds. Mixed valency is a term that refers to a chemical species, whether organic or inorganic, with two or more redox centers that have different oxidation stated. This concept was first introduced in 1915 by Hofmann and Hoeschele. MV species are usually intensely colored due to the unique electronic transitions associated with intervalence electron transfer. CV is a useful technique in studying MV species since it provides insights on how stable one ionic species will be with respect to disproportionation, using the comproportionation constant (Kc). Kc is used to measure the ease of isolating the radical-cation rather than obtaining a mixture of neutral, radical-cationic, and dicationic species. Kc can be calculated from the ΔE which is the value of the redox potential difference between the first and the second oxidation events. Kc is a quantity used to evaluate the electronic communication between two redox centers in mixed-valence species. Large comproportionation constant, i.e. a substantial value of ΔE, is a crucial requirement for the isolation of mixed-valence species separately of other oxidation states of the species. Kc is defined as: […]

[2] = Stability via UV-vis spectroscopy over 24 h; assay type: physicochemical; details: 0.5 mM in 0.1 M TBAPF6/CH3CN
Procedure: In an argon-filled glove box, 0.5 mM solutions of neutral and radical cation were prepared in acetonitrile and pipetted into 1 mm path length optical glass cuvettes. The choice of this path length of cuvette is dictated by the aim to prevent the UV-vis detector saturation of the intensely colored cationic species. All samples destined to UV-vis stability monitoring contained 0.1 M TBAPF6 whereas UV-NIR samples were in pure CH3CN. Solutions were added to the cuvettes inside an argon filled glovebox, sealed with a Teflon screw cap and removed from the glovebox for spectral analysis. UV-vis spectra were collected in an Agilent 8453 diode-array spectrometer. Spectra were collected at 0, 1, 3, 4, 5, 6 and 24 h after dissolution.
UV-vis spectroscopy provides a means to monitor the stabilities of the radical cations over prolonged time scales that extend beyond that offered by CV. This is possible since all the charged forms show absorption features in the UV and visible regions, which enables monitoring of the change of concentrations over the course of time, based on changes in peak intensities.
The radical cation samples were prepared in 0.1 M TBAPF6/CH3CN inside an argon-filled glovebox and transferred into sealed cuvettes to prevent contact with atmospheric moisture/air when taken outside the glovebox. […]
The neutral samples of each molecule were also monitored for the sake of comparison. […]

Row | Redox peak of radical cation formation (first oxidation potential) [1] [V vs Fc^+/Fc] | Kc (comproportionation constant) [1] | Stability of radical cation UV-vis absorption spectrum [2] | SMILES
1 | 0.17 | 5 × 10^2 |  | COc1ccc(N(c2ccc(OC)cc2)c2ccc(-c3ccc(N(c4ccc(OC)cc4)c4ccc(OC)cc4)cc3)cc2)cc1 [2^+⋅]
2 | 0 | 3 × 10^6 |  | COc1ccc(N(c2ccc(OC)cc2)c2ccc(N(c3ccc(OC)cc3)c3ccc(OC)cc3)cc2)cc1 [1^+⋅]
3 | 0.41 | 3 × 10^8 | very subtle changes | Cc1ccc(C(F)(F)F)cc1N(c1ccc(N(c2cc(C(F)(F)F)ccc2C)c2cc(C(F)(F)F)ccc2C)cc1)c1cc(C(F)(F)F)ccc1C [3^+⋅]
4 | 0.53 | 5 × 10^2 | rapid decay | Cc1ccc(C(F)(F)F)cc1N(c1ccc(-c2ccc(N(c3cc(C(F)(F)F)ccc3C)c3cc(C(F)(F)F)ccc3C)cc2)cc1)c1cc(C(F)(F)F)ccc1C [4^+⋅]
